# Measurements reported in ChEMBL document CHEMBL5316341, “The Development and Design Strategy of Leucine-Rich Repeat Kinase 2 Inhibitors: Promising Therapeutic Agents for Parkinson's Disease” (J Med Chem, 2023).
# pEC50, pIC50: −log10 of the molar value.
# Tests used:
# [1] = molecular target: T1, von Hippel-Lindau disease tumor suppressor/Leucine-rich repeat serine/threonine-protein kinase 2 (Mus musculus, UniProt P40338+Q5S006, R1441C); test: PROTAC activity at VHL/LRRK2 R1441C mutant in mouse bone marrow derived macrophages assessed as induction of LRRK2 degradation; assay type: cell-based, BMDM
# T1 sequence (P40338 whole entry, stated change not applied): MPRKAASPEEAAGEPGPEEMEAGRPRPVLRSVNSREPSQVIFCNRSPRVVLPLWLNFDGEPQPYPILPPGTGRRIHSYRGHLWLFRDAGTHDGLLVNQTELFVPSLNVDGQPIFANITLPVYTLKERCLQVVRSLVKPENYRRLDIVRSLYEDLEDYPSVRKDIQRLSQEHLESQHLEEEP
# T1 sequence (Q5S006 whole entry R1441C, stated change not applied): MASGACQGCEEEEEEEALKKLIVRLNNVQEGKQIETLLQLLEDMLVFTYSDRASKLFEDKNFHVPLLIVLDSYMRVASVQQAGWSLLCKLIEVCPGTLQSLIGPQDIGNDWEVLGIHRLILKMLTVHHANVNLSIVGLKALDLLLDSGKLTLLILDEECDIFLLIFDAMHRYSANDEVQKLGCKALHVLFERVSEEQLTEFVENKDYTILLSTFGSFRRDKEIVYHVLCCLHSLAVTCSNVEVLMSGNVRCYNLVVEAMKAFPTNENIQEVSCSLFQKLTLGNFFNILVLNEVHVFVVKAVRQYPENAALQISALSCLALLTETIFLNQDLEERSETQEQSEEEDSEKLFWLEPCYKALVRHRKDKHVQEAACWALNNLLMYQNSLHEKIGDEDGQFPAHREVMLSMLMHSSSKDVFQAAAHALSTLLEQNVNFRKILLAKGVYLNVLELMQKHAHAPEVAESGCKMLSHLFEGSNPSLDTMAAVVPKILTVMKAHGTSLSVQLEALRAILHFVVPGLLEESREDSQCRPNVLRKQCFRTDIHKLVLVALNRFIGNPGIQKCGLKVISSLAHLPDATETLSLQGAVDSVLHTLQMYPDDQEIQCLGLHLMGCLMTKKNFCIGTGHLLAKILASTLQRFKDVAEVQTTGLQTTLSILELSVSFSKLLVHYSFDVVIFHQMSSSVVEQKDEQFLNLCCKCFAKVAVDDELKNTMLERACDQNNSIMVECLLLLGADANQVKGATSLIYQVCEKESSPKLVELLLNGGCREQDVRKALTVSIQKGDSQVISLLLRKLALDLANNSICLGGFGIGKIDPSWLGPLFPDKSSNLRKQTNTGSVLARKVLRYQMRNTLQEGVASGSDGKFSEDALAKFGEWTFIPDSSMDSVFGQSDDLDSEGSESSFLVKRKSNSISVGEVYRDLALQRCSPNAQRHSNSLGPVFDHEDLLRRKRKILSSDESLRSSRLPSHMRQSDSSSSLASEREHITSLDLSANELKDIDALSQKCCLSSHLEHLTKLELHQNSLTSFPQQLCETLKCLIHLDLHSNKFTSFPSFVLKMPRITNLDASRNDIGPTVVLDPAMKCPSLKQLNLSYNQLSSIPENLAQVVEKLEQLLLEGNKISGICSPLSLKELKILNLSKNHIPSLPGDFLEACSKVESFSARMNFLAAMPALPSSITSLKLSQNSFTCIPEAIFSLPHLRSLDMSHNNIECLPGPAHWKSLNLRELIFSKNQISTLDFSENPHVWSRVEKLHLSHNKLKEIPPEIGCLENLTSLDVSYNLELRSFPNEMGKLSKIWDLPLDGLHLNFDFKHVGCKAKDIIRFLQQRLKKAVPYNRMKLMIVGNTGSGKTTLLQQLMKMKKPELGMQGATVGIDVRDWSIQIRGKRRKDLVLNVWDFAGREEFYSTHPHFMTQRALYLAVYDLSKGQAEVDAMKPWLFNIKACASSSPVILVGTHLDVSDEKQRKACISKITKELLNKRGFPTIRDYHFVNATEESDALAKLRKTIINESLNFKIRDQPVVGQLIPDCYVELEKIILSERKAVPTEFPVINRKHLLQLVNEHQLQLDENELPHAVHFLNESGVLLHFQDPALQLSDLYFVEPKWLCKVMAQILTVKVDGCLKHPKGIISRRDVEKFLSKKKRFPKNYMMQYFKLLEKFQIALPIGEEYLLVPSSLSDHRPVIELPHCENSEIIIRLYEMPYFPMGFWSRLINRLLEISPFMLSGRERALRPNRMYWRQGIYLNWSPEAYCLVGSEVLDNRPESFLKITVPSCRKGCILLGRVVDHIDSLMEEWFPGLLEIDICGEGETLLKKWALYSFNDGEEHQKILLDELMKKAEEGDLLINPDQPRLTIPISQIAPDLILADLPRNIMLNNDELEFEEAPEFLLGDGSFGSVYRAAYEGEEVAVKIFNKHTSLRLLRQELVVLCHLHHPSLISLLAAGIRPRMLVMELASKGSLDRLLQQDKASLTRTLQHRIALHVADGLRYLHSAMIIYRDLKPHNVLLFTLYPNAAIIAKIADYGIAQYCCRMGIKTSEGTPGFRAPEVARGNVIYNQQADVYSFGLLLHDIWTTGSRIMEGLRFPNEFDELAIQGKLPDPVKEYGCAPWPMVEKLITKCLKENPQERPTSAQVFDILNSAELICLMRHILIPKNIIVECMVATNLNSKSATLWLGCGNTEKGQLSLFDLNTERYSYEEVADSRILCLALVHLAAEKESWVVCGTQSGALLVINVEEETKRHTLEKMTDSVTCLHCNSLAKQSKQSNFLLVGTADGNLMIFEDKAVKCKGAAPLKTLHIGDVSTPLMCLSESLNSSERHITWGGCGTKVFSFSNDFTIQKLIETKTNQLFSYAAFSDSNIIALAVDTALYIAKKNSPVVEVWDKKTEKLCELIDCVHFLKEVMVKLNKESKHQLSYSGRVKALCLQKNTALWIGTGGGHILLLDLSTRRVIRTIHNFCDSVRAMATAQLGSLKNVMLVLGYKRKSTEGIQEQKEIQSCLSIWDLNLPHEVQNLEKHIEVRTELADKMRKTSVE
# [2] = molecular target: T1, von Hippel-Lindau disease tumor suppressor/Leucine-rich repeat serine/threonine-protein kinase 2; test: PROTAC activity at VHL/LRRK2 R1441C mutant in mouse PBMC cells assessed as induction of LRRK2 degradation; assay type: cell-based
# [3] = Oral bioavailability in mouse; assay type: ADME, organism-based; conditions: in vivo
# [4] = tested on: von Hippel-Lindau disease tumor suppressor/Leucine-rich repeat serine/threonine-protein kinase 2 (Mus musculus), Q5S006+P40338 [R1441C]; test: PROTAC activity at VHL/LRRK2 R1441C mutant in mouse PBMC cells assessed as induction of LRRK2 degradation by measuring half-life; assay type: cell-based
# [5] = tested on: von Hippel-Lindau disease tumor suppressor/Leucine-rich repeat serine/threonine-protein kinase 2 (Mus musculus), Q5S006+P40338 [R1441C]; test: PROTAC activity at VHL/LRRK2 R1441C mutant in mouse PBMC cells assessed as induction of LRRK2 degradation by measuring maximal efficacy relative to control; assay type: cell-based
# [6] = tested on: von Hippel-Lindau disease tumor suppressor/Leucine-rich repeat serine/threonine-protein kinase 2 (Mus musculus), Q5S006+P40338 [R1441C]; test: PROTAC activity at VHL/LRRK2 R1441C mutant in mouse embryonic fibroblast cells assessed as induction of LRRK2 degradation by measuring maximal efficacy relative to control; assay type: cell-based; conditions: MEF
# [7] = tested on: von Hippel-Lindau disease tumor suppressor/Leucine-rich repeat serine/threonine-protein kinase 2 (Mus musculus), Q5S006+P40338 [R1441C]; test: PROTAC activity at VHL/LRRK2 R1441C mutant in mouse bone marrow derived macrophages assessed as induction of LRRK2 degradation by measuring half-life; assay type: cell-based; conditions: BMDM
# [8] = tested on: von Hippel-Lindau disease tumor suppressor/Leucine-rich repeat serine/threonine-protein kinase 2 (Mus musculus), Q5S006+P40338 [R1441C]; test: PROTAC activity at VHL/LRRK2 R1441C mutant in mouse bone marrow derived macrophages assessed as induction of LRRK2 degradation by measuring maximal efficacy relative to control; assay type: cell-based; conditions: BMDM
# [9] = tested on: von Hippel-Lindau disease tumor suppressor/Leucine-rich repeat serine/threonine-protein kinase 2 (Mus musculus), Q5S006+P40338 [R1441C]; test: PROTAC activity at VHL/LRRK2 R1441C mutant in mouse embryonic fibroblast cells assessed as induction of LRRK2 degradation by measuring half-life; assay type: cell-based; conditions: MEF
# [10] = molecular target: T1, von Hippel-Lindau disease tumor suppressor/Leucine-rich repeat serine/threonine-protein kinase 2; test: PROTAC activity at VHL/LRRK2 R1441C mutant in mouse embryonic fibroblast cells assessed as induction of LRRK2 degradation; assay type: cell-based, MEF
# [11] = molecular target: Leucine-rich repeat serine/threonine-protein kinase 2 (Homo sapiens, UniProt Q5S007); test: Inhibition of wild-type LRRK2 (unknown origin) by adapta assay
# [12] = molecular target: Leucine-rich repeat serine/threonine-protein kinase 2 (Homo sapiens, UniProt Q5S007, G2019S); test: Inhibition of LRRK2 G2019S mutant (unknown origin) by adapta assay
# [13] = molecular target: T2, Protein cereblon/Leucine-rich repeat serine/threonine-protein kinase 2 (Homo sapiens, UniProt Q5S007+Q96SW2); test: PROTAC activity at CRBN/wild type HiBit tagged-LRRK in HEK293 cells assessed as LRRK2 degradation by Nano-Glo dual-luciferase reporter assay; assay type: cell-based
# [14] = tested on: Protein cereblon/Leucine-rich repeat serine/threonine-protein kinase 2 (Homo sapiens), Q5S007+Q96SW2 [G2019S]; test: PROTAC activity at CRBN/LRRK2 G2019S mutant in HEK293 cells assessed as LRRK2 degradation by measuring maximum degradation by Nano-Glo dual-luciferase reporter assay relative to control; assay type: cell-based
# [15] = molecular target: T2, Protein cereblon/Leucine-rich repeat serine/threonine-protein kinase 2; test: PROTAC activity at CRBN/wild type HiBit tagged-LRRK2 in HEK293 cells assessed as LRRK2 degradation by measuring maximum degradation by Nano-Glo dual-luciferase reporter assay relative to control; assay type: cell-based
# [16] = molecular target: Protein cereblon/Leucine-rich repeat serine/threonine-protein kinase 2 (Homo sapiens, UniProt Q5S007+Q96SW2, G2019S); test: PROTAC activity at CRBN/HiBit tagged-LRRK2 G2019S mutant in HEK293 cells assessed as LRRK2 degradation by Nano-Glo dual-luciferase reporter assay; assay type: cell-based
smiles,measurement,setting,value
CNc1nc(Nc2ccc(C(=O)N3CCN(C[C@H]4CC[C@H](CSC(C)(C)[C@H](NC(=O)C5(F)CC5)C(=O)N5C[C@@H](O)C[C@@H]5C(=O)NCc5ccc(-c6scnc6C)cc5)CC4)CC3)cc2OC)ncc1Cl,pEC50,[1],7.82
same,pEC50,[2],7.82
same,bioavailability,[3],15%
same,T1/2,[4],36 min
same,Emax,[5],82%
same,Emax,[6],82%
same,T1/2,[7],36 min
same,Emax,[8],82%
same,T1/2,[9],36 min
same,pEC50,[10],7.82
CC1(Oc2ccc3[nH]nc(-c4cc(N5CCN(CCOCCOCCOCCOc6ccc7c(c6)C(=O)N(C6CCC(=O)NC6=O)C7=O)CC5)ncn4)c3c2)CC1 (stereo unspecified),pIC50,[11],8.84
same,pIC50,[12],9.01
C[C@H]1CN(c2cc(-c3n[nH]c4ccc(OC5(C)CC5)cc34)ccn2)CCN1CCOCCOCCOCCOc1ccc2c(c1)C(=O)N(C1CCC(=O)NC1=O)C2=O (stereo partly specified),pEC50,[13],> 8.00
same,Emax,[14],> 70%
same,Emax,[15],> 70%
same,pEC50,[16],> 8.00
